These results are taken from US9102899B2, “Organic compounds” (Givaudan SA, priority 2004, dated 2015).

Data set [1] can be described thus: Odour threshold by gas chromatograph with sniff port, panel of trained individuals. As to conditions: GC sniff port; absolute amount of compound delivered at the sniff port; same panel, couples evaluated on the same day. The procedure:
According to standard procedures known to the person skilled in the art, threshold values for volatile perfumery compounds were determined on a gas chromatograph equipped with a sniff port by a panel of trained individuals. The last concentration smelled by each individual was recorded as the individual threshold value expressed in ng (absolute amount of compound delivered at the sniff port). All compounds have been evaluated by the same panel. The couples (saturated and unsaturated compound) were evaluated on the same day.

`CCC(C)=C(C#N)c1ccccc1` (racemic) [Example 3, 3-Methyl-2-phenyl-pent-2-ene nitrile]: the Odour threshold in data set [1] is listed as 3 ng. On the same count and under the same terms, to `CCCCCC=C(C#N)c1ccccc1` (stereo in doubt) [Example 2, (2E)-2-Phenyl-oct-2-ene nitrile] belongs 2 ng; to `CCCCCCC(C#N)c1ccccc1` (centres unmarked) [Comparison Example 2A, reference compound], 15 ng. Same read-out and setting: to `CCC(C)C(C#N)c1ccccc1` (centres unmarked) [Comparison Example 3A, reference compound] belongs 26 ng. In general, melting point refers to the temperature, or range, at which the solid turns liquid. Turning to `CC(C)=C/C=C(/C#N)c1ccccc1` [Example 6, (2E)-5-Methyl-2-phenyl-hexa-2,4-diene nitrile], the melting point fell in the range of 66 to 67 °C.
